Measurements: article PMC4104029, “Mechanism of Action of Compound-13: An α1-Selective Small Molecule Activator of AMPK” (Chemistry & Biology, 2014)

Key:
[1] = target: T1, AMPKα1β1γ2 with β1 Δ1–185 (ΔCBD) (Homo sapiens, UniProt Q13131+Q9UGJ0); assay: AMPKα1β1γ2 mutagenesis, activation assay; type: biochemical; conditions: 1 μM C2; complex purified from COS1 cells
T1 construct: made in house; host or cells: COS1 cells (transient transfection, FLAG-M2 purification)
Experimental: (§1) Figure 2 C2 Is a Partial Agonist of α2 Complexes and Selectively Protects α1 Complexes against Dephosphorylation by PP2C (A and B) Recombinant AMPKα1β1γ1 (A) or AMPKα2β1γ1 (B) was assayed in the presence of AMP (30 μM) and increasing concentrations of C2 (0–20 μM). Results are expressed as fold increase in activity relative to controls without ligand and represent the mean ± SD for three independent experiments. (C and D) The effects of C2 and AMP on dephosphorylation and inactivation of AMPKα1β1γ1 (C) and α2β1γ1 (D) by PP2Cα (present in all assay conditions). Results are expressed as a percentage of control reactions performed in the absence of Mg^2+ and represent the mean ± SD of three independent experiments. Representative blots of pT172 and total AMPKα are shown below the bar charts. […] Results are expressed as the fold increase in activity relative to controls in the absence of compound and represent the mean ± SD for three independent experiments. […]
(§2) Competitive elution of AMPKγ2 from ATP-Sepharose. […] Resin was pelleted at low speed and the resulting supernatant analysed for the presence of AMPKγ2 by SDS-PAGE and staining with colloidal Coomassie (Generon). […]

AMPKα1β1γ2 with γ2 R531G = target: T2, AMPKα1β1γ2 with γ2 R531G (Homo sapiens, UniProt Q13131+Q9UGJ0, R531G); assay: AMPKα1β1γ2 mutagenesis, activation assay; type: biochemical; conditions: 1 μM C2; complex purified from COS1 cells
T2 construct: made in house; host or cells: COS1 cells (transient transfection, FLAG-M2 purification)
T2 sequence (Q13131 whole entry): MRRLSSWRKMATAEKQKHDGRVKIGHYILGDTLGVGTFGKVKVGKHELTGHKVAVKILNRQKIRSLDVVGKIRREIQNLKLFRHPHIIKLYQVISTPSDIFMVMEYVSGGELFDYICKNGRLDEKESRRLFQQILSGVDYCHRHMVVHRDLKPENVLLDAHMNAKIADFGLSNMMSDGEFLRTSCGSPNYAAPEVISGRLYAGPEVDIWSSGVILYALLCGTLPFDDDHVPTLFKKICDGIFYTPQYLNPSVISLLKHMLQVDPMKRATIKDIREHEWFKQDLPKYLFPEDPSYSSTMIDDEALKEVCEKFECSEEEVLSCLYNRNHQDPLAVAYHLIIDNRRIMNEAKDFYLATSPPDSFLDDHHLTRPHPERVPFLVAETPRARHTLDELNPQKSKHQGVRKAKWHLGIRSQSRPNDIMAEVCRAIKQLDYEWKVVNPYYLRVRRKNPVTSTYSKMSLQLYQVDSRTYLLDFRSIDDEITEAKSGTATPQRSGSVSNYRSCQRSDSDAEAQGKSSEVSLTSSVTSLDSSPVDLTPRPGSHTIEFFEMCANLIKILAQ
T2 sequence (Q9Y478 whole entry partner): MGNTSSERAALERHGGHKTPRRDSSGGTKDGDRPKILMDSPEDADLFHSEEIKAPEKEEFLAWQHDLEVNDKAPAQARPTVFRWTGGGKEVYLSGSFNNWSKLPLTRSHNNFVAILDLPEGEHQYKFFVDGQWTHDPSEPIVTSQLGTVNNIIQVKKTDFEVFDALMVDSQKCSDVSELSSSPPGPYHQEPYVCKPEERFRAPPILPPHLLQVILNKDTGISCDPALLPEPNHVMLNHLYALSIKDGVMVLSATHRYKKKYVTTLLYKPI
T2 sequence (Q9UGJ0 whole entry R531G): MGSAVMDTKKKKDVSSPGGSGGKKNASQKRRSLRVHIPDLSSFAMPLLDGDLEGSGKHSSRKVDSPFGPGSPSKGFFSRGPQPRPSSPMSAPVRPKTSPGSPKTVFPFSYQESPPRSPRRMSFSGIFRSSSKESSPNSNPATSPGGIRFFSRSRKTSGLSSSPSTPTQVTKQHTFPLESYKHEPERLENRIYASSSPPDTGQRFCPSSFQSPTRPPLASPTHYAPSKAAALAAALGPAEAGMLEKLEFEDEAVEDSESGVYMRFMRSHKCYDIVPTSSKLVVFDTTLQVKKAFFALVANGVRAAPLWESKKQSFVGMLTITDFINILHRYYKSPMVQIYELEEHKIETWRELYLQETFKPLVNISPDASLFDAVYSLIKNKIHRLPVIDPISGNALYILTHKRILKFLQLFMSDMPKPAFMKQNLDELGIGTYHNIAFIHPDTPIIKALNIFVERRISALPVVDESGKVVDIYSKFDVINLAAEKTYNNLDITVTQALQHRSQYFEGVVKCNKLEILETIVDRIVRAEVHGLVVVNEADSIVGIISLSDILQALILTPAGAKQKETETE
Experimental: as §1, §2

T1 sequence (Q13131 whole entry, stated change not applied): as the sequence (Q13131 whole entry) above
T1 sequence (Q9Y478 186-270 partner): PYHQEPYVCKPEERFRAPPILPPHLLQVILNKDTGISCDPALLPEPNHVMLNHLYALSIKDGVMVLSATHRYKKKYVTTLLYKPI
T1 sequence (Q9UGJ0 whole entry, stated change not applied): as the sequence (Q9UGJ0 whole entry R531G) above, with G531R counted along it

O=P(O)(O)c1ccc(-c2cc(O)on2)o1 [Compound C2, 5-(5-hydroxyl-isoxazol-3-yl)-furan-2-phosphonic acid] was tested. Which “activation of mutant complex” value [1] did it give?
Its value is “unaffected”.

And the “stimulation of mutant complex” value (AMPKα1β1γ2 with γ2 R531G)?
Its value is “failed to stimulate”.
